# Test system: human full-thickness skin explants
# Assay: ex-vivo study of lightening efficacy (melanin content) in human full-thickness skin explants
# Format: cell-based
# Conditions: for Melanin reduction: Reduction vs. Standard (%): treatments versus placebo at day 6, phototype tanned
# Protocol: To evaluate the lightening efficacy of the test products an ex-vivo study using human full-thickness skin explants was performed. […] 1,2-Pentandiol was added to some of the blends to improve the penetration of the active ingredients into the skin layers.
Compound,Melanin reduction: Reduction vs. Standard (%),further results
CC(C)=CCC[C@@](C)(O)[C@@H]1CC=C(C)CC1 [Bisabolol],–,"efficacy (melanin decrease) (0.08% Bisabolol alone, ex vivo model, tanned phototype): did not have any efficacy"
"CC(c1ccccc1)c1ccc(O)cc1O (centres unmarked) [Example C2, Phenylethyl Resorcinol]",−13%,–
"CC(c1ccccc1)c1ccc(O)cc1O (centres unmarked) [Example C3, Phenylethyl Resorcinol]",−21%,–
"CC(C)=CCC[C@](C)(O)C1CC=C(C)CC1 (some centres unmarked) [Example C4, Bisabolol]",0%,–
"CC(c1ccccc1)c1ccc(O)cc1O (centres unmarked) [Pheneylethyl Resorcinol, Phenylethyl Resorcinol]",–,"melanin decrease (0.4% Phenylethyl Resorcinol alone, tanned phototype): 21%"

# — patent publication US9889078B2, “Skin and/or hair whitening mixture” (Symrise AG, priority 2013, dated 2018)
